In a melting point compilation (Tetko et al.; mined from patent text by program, amines drawn as free bases though some values may be those of a salt):

Compound | melting point
CCSc1cnc(OCCOc2ncnc(NS(=O)(=O)c3ccc(C(C)(C)C)cc3)c2-c2ccc(C)cc2)nc1 | 177 to 178 °C
CCC12CCC3=C(CCc4cc(O)ccc43)C1CCC2=O (configuration not stated) | 235 to 239 °C
CCCCCCCCc1ccc(C(O)C(=O)c2ccccc2)cc1 (configuration not stated) | 85 to 89 °C
O=C(O)COc1c(Br)cc(-c2c3ccccc3c(Br)c3oc4ccccc4c23)cc1Br | 250 to 252 °C
Cc1nc(CN(C)C(=O)N[C@H](C(=O)N[C@@H](Cc2ccccc2)C[C@H](O)[C@H](Cc2ccccc2)NC(=O)OCc2cccnc2)C(C)C)cs1 | 69 to 72 °C
Cc1ccc(NCc2ccc(C(=O)Nc3ccccc3NC(=O)OC(C)(C)C)cc2)cc1Nc1nccc(-c2cccnc2)n1 | 125 °C
NC(=O)C1CCCC(C(=O)O)C1 (configuration not stated) | 102 to 128 °C
COc1cc2ncnc(NC3=CC(=O)C(N4CCOCC4)=CC3=O)c2cc1OC | 249 to 250 °C
CCCCOC(=O)c1ccc(N2CCN(S(C)(=O)=O)CC2)cc1 | 145 to 150 °C
COC(=O)c1ccc(C)c(SC(=O)c2ccc3c(c2)C(C)(C)CCC3(C)C)c1 | 120 °C
COC(=O)CCc1ccc(-n2c(C)nn(-c3ccc(C#N)cc3)c2=O)cc1 | 163 to 164 °C
NS(=O)(=O)c1ccc(-c2cnn(-c3ccc(F)c(F)c3)c(=O)c2Oc2ccc(F)cc2)cc1F | 224 to 226 °C
CC(=O)N(C(C)=O)c1nc2n(n1)CCc1ccccc1-2 | 139 to 140 °C
CC=C1CC2C3CCc4cc(OC)ccc4C3CCC2(CC)C1=O (configuration not stated) | 155 to 157 °C
COc1cc2c(cc1OC)CN(CCc1ccc([N+](=O)[O-])cc1)CC2 | 118 to 119 °C
O=c1c2cnc(-c3ccccc3)nc2sn1CCN1CCOCC1 | 163 to 165 °C
CCC(CCNC(=O)C(C#N)=Cc1cc(O)c(O)c(OC)c1)NC(=O)C(C#N)=Cc1cc(O)c(O)c(OC)c1 (configuration not stated) | 256 °C
Nc1nc2c(ncn2COCC(COC(=O)COc2ccccc2)OC(=O)COc2ccccc2)c(=O)[nH]1 (configuration not stated) | 95 to 100 °C
Cc1ccc(F)cc1C(=O)Nc1ccc(C(=O)N2CCc3cn[nH]c3-c3sccc32)cc1 | 310 to 312 °C
Cc1nnc2n1-c1ccc(C#CCn3cnc4ccccc43)cc1C(c1ccccc1Cl)=NC2 | 165 to 168 °C
COc1c(C)c(N2CCN(c3ccc4c(c3)OCCO4)CC2)c(C)c2c1OC(C)(C)C2 | 167 to 168 °C
CCCCNc1c(C(=O)OCC)c(C)nc2[nH]nnc12 | 188 to 189 °C
COc1nc(OC)c(C(C)C)c(C(=O)c2cc(C)cc(Br)c2)n1 | 122 to 123 °C
COC(=O)c1ccccc1C=CC(=O)N1CCc2c([nH]c3ccccc23)C1c1ccc2c(c1)OCO2 (configuration not stated) | 203 to 204 °C

Further lines, results first:

melting point | Compound
172 to 174 °C | Cc1ncccc1Cn1nnnc1-c1cc(Cl)ccc1Cl
214 to 216 °C | Nc1nc(N)nc(-c2ccc(C(O)c3ccccc3)cc2)n1 (racemic)
202 to 206 °C | N#CCc1ccc(NS(=O)(=O)c2cccc(Cl)c2Cl)cc1
175 °C | COC(=O)CCC#Cc1cc(Cl)ccc1NS(=O)(=O)c1ccc2nc(N)sc2c1
84 to 85 °C | COc1cccc(CC(=O)O)c1OCc1cc(OCc2ccc3ccccc3n2)n(C(C)C)n1
79 to 81 °C | CCCOc1cccc(C2(c3cccs3)N=C(N)N(C)C2=O)c1 (configuration not stated)
170 to 172 °C | c1ccc(-c2nn3c(c2-c2nc4ncccc4[nH]2)CCC3)nc1
230 to 231 °C | O=C1CCC(O)=C1Cc1ccc2ccccc2c1
195 to 197 °C | COc1cc(NC(=O)C#Cc2ccc(C(F)(F)F)cc2Cl)ccc1OCCN1CCC(OC)CC1
125 to 126 °C | COC(=O)c1cccc(-c2cccnc2)c1
75 to 79 °C | Cn1c(C=O)c(-c2ccc(F)cc2)c2ccccc21
251 to 252 °C | CC1(C)Oc2ccc(Br)cc2C(Oc2ccnc(O)c2)C1(C)O (configuration not stated)
215 to 218 °C | CC(Cl)C(=O)N1c2ccccc2C(=O)Nc2cccnc21 (configuration not stated)
